Data from patent publication US5756510A, “Benzamide analogs useful as PARP (ADP-ribosyltransferase, ADPRT) DNA repair enzyme inhibitors” (Newcastle University Ventures Limited, priority 1994, dated 1998).
Like-named read-outs stand apart in the source and are kept apart here.

Key:
PARP = biological target: T1, PARP (Mus musculus, UniProt P11103); experiment: PARP inhibition assay ([32P]-NAD incorporation into TCA-precipitated poly(ADP-ribose) in permeabilised L1210 cells, oligonucleotide activated); assay type: biochemical, L1210 murine leukaemia cells; conditions: for IC50: unit printed broken, attached to the next cell
T1 construct: endogenous in cells; host or cells: L1210 murine leukaemia cells, permeabilised by hypotonic buffer and cold shock
Text: In principle, the PARP assay used relies upon activating endogenous PARP (as hereinafter described) in cells containing exogenous [^32 P]-NAD^+ introduced therein by suspending the cells in a solution of [^32 P]-NAD^+ to which they have been rendered permeable in an initial pretreatment step. The poly(ADP-ribose) which is then synthesised by the enzyme can be precipitated by trichloracetic acid (TCA) and the amount of radio-labelled ^32 p incorporated therein measured, e.g. using a scintillation counter, to give a measure of the activity of the PARP under the particular conditions of the experiment. By repeating the experiment following the same procedure, and under the same conditions, in the presence of each compound to be tested the reduction in enzyme activity, representative of the inhibitory effect of the test compound, can then be ascertained from the reduction, if any, of the amount of [^32 P] measured in the TCA precipitated poly(ADP-ribose).
Thus, with a range of different compounds a set of comparative values for inhibitory activity can be obtained.
In practice, L1210 murine leukaemia cells were used as the source of the PARP enzyme after being rendered permeable to exogenous [^32 P]NAD by exposure to hypotonic buffer and cold shock. […] This oligonucleotide sequence snaps back on itself to form a double-stranded molecule with a single blunt end and provides an effective substrate for activation of PARP.
The experimental protocol adopted, in which a synthetic oligonucleotide as mentioned above is introduced as a specific activator of PARP, discriminates between PARP and other mono-ADP-ribosyltransferases in the cells.
The oligonucleotide having the palindromic sequence […], synthesised by conventional means, was vacuum dried and stored as pellets in a freezer. Before use, it was made up to 200 μg/ml in 10 mM Tris/HCl, pH 7.8, with each pellet being dissolved completely in […] of buffer. The solution was then heated to 60° C. in a water bath for 15 minutes, and allowed to cool slowly to ensure correct reannealing. After adding 9.5 ml of buffer, the concentration was checked by measuring the optical density of a diluted sample at 260 nm. The main solution was then diluted to a concentration of 200 μg/ml and stored in 500 μl aliquots in a freezer, ready for use.
The L1210 cells used as the source of the PARP enzyme were maintained as a suspension culture in RPMI medium+10% foetal bovine serum+glutamine and antibiotics (penicillin and streptomycin). HEPES and sodium bicarbonate were also added, and the cells were seeded in 100 ml of medium such that there would be a concentration of approximately 8×10^5 /ml at the time of carrying out an assay.
(§1) The solubility of the compound was then checked by adding a quantity of the DMSO solution to a quantity of the isotonic buffer, in the required final proportions that were to be used in carrying out the assay, and after an interval the solution was examined under a microscope for any signs of crystals forming.
A desired quantity of the cells, ascertained by counting with a haemocytometer, was then centrifuged (1500 rpm in a "Europa" model 24M centrifuge for 5 minutes), the supernatant removed, and the pellets obtained were resuspended in 20 ml Dul A at 4° C. before centrifuging again at 1500 rpm and 4° C. After again removing the supernatant, the cells were resuspended at a concentration of 3×10^7 cells/ml in ice cold hypotonic buffer and left for 30 minutes on ice. Nine volumes were then added of ice cold isotonic buffer, and the cells, now rendered permeable to exogenous NAD^+, were then used within the next hour for carrying out an assay.

[1] = solubility check of test compound in assay buffer (DMSO solution added to isotonic buffer, microscope); assay type: physicochemical
Text: as §1, with “The compounds being tested were generally made up as a concentrated solution in DMSO (Dimethyl sulphoxide). The” for “The”

L1210 cells [2] = experiment: growth inhibition assay, alone or with temozolomide; assay type: cell-based, murine; conditions: Mus musculus, L1210, 48 h
Procedure: (§2) Again using cultures of the murine leukaemia L1210 cell line, growth inhibition experiments were carried out to assess the cytostatic effects of the compounds and clonogenic survival assays were performed to assess cytotoxicity, especially in relation to use of the compounds in conjunction with DNA damaging cytotoxic agents such as cytotoxic antitumour drugs or high energy radiation.
At this time one set of replicates would be counted using a Coulter counter (N0), and 48 hours later the remaining samples would be counted (N1). The percentage (%) growth inhibition of drug-treated samples could then be estimated. In drug combination experiments, where evidence of synergistic effects on cell growth or clonogenicity was being sought, a single, fixed concentration of a cytotoxic drug sample, e.g. temozolomide, would be taken as the control value.

L1210 cells [3] = experiment: clonogenic survival assay with temozolomide (TM); conditions: 16 hours, ± S.E.
Procedure: as §2
After 7-10 days colonies were stained with 0.5 mg/ml MTT and counted by eye on a gridded light box. Survival curves were plotted and typical DEF10 values obtained are hereinafter given in Table II (DEF10 being defined as the ratio of the concentration of TM that reduces survival to 10% divided by the concentration of TM that reduces survival to 10% in the presence of a fixed concentration of PARP inhibitor). Each DEF10 value in Table II represents the average ratio±S.E. (standard error) derived from the averaged 10% survival for TM alone (675±31 μM from 22 independent survival curves) divided by individual 10% survival values from at least 3 independent survival curves performed in the presence of a fixed concentration of inhibitor.
For NU1025 maximal potentiation of cytotoxicity was obtained by a concentration in the range of 50-100 μM, and was significant at doses as low as 10 μM.

in vitro = conditions: mouse, l1210 cells
Procedure: as §2

[4] = tested on: DNA strand breaks in L1210 cells; experiment: DNA strand break assay (alkaline elution); assay type: cell-based, murine
Procedure: as §2
All the compounds were tested for their ability to produce strand breaks when used alone.

[5] = 10 μM, read-out: % Inhibition (PARP)
[6] = 30 μM, read-out: % Inhibition (PARP)
[7] = read-out: % Inhibition (PARP), 10 μM
[8] = read-out: % Inhibition (PARP), 30 μM

T1 sequence (P11103 whole entry): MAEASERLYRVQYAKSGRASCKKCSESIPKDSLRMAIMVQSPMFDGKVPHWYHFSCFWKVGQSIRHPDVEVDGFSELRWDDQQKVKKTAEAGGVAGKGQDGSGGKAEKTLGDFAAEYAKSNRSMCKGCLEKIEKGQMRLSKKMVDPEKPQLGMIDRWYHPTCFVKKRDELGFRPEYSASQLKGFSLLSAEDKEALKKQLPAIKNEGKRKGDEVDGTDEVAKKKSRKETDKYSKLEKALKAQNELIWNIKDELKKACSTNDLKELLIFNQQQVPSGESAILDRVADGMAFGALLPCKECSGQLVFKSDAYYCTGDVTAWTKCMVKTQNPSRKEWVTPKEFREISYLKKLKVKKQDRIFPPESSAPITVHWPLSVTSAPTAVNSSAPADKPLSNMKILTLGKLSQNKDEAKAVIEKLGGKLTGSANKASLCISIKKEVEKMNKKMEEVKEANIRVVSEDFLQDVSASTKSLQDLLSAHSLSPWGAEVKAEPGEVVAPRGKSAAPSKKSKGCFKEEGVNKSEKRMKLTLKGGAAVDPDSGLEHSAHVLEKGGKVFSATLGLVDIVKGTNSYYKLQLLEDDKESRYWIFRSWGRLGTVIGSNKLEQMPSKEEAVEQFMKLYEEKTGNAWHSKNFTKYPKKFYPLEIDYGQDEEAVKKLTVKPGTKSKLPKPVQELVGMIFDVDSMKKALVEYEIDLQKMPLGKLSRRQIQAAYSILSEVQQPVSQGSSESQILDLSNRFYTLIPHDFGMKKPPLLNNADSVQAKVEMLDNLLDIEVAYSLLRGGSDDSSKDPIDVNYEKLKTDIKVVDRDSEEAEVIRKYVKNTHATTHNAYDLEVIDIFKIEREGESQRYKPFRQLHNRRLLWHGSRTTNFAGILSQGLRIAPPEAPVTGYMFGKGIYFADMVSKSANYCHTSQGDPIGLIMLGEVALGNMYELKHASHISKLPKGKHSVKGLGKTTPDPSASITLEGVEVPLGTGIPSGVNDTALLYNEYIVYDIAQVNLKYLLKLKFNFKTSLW

Structure (SMILES) | inhibition at 10 µM (PARP; [5]) [%] | inhibition at 30 µM (PARP; [6]) [%] | insolubility at assay concentration ([1]; 100 μM) | insolubility at assay concentration ([1]; 30 μM) | inhibition at 100 µM (PARP; read-out: % Inhibition (PARP)) [%] | also measured
COc1ccc(COc2cccc(C(N)=O)c2)cc1 [NU1006, 3-(4-methoxybenzyloxy)benzamide] | 58 | 74 | insol. | – | – | –
N#Cc1ccc(COc2cccc(C(N)=O)c2)cc1 [NU1037, 3-(4-cyanobenzyloxy)benzamide] | 33 | – | insol. | insol. | – | –
CC(=O)Nc1ccc(COc2cccc(C(N)=O)c2)cc1 [NU1030, 3-(N-acetyl-4-aminobenzyloxy)benzamide] | 49 | 70 | – | – | 84 | –
CCCCOc1cccc(C(N)=O)c1 [NU1038, 3-butoxybenzamide] | 23 | 50 | – | – | 78 | –
NC(=O)c1ccccc1 [BENZAMIDE, benzamide] | – | – | – | – | – | IC50 (L1210 cells [2]; read-out: IC50 INHIBITOR + 100 μM TM (growth inhibition)): 840 ± 120 µM; IC50 (L1210 cells [2]; read-out: IC50 INHIBITOR ALONE (growth inhibition)): 2500 ± 300 µM; DEF10 (TM) (L1210 cells [3]; 1 mM inhibitor): 4.0 ± 0.7; DEF10 (TM) (L1210 cells [3]; 3 mM inhibitor): 6.9 ± 0.2; CC50 at 24 h (in vitro): 6000 ± 1500 µM; concentration above which strand breakage with TM increases significantly ([4]; 150 μM TM, 1 hour): above 3 mM; effect on DNA strand break levels, compound alone ([4]; 20 mM, 24 hour incubation): no significant effect on DNA strand break levels
NC(=O)c1cccc2c1OCO2 [NU1034, 2,3-methylenedioxy benzamide] | 66 | – | – | – | 94 | IC50 (PARP): 5.3 µM
CC(C)(C)c1nc2c(C(N)=O)cccc2o1 [NU1040, 2-t-butylbenzoxazole-4-carboxamide] | 87 | 88 | – | – | 93 | PARP inhibitory activity in words (PARP): relatively high inhibitory activity even at low concentrations; IC50 (PARP): 8.4 µM
NC(=O)c1cccc(OCCCCCCCCn2cnc3c(Cl)ncnc32)c1 [NU1027, 3-[8-(6-chloropurin-9-yl)octyloxy]benzamide] | 30 | – | insol. | insol. | – | –
NC(=O)c1cccc(OCc2ccc(F)cc2)c1 [NU1015, 3-(4-Fluorobenzyloxy)benzamide] | – | – | insol. | – | – | inhibition at 10 µM (PARP; [7]): 20%; inhibition at 30 µM (PARP; [8]): 52%
NC(=O)c1cccc(OCCc2ccccc2)c1 [NU1048, 3-(Phenethyl)oxybenzamide] | 30 | 50 | – | – | 72 | –
C=CCOc1cccc(C(N)=O)c1 [NU1031, 3-Allyloxybenzamide] | 21 | 58 | – | – | 80 | –
NC(=O)c1cccc(OCC2CCCCC2)c1 [NU1008, 3-(cyclohexylmethyloxy)benzamide] | – | – | insol. | insol. | – | PARP inhibitory activity in words (PARP): some PARP inhibitory activity; insolubility at assay concentration ([1]; 10 μM): insol.
NC(=O)c1cccc(OCc2ccc(Br)cc2)c1 [NU1014, 3-(4-Bromobenzyloxy)benzamide] | 23 | 36 | insol. | – | – | –

The next lines start with results.

inhibition at 10 µM (PARP; [5]) [%] | inhibition at 30 µM (PARP; [6]) [%] | insolubility at assay concentration ([1]; 100 μM) | insolubility at assay concentration ([1]; 30 μM) | inhibition at 100 µM (PARP; read-out: % Inhibition (PARP)) [%] | Structure (SMILES) | also measured
23 | – | insol. | insol. | – | NC(=O)c1cccc(OC/C=C/c2ccccc2)c1 [NU1050, 3-(Cinnamyloxy)benzamide] | –
– | – | insol. | insol. | – | CCCCCCCCOc1cccc(C(N)=O)c1 [NU1045, 3-octyloxybenzamide] | insolubility at assay concentration ([1]; 10 μM): insol.
21 | 40 | insol. | – | – | NC(=O)c1cccc(OCc2cccc([N+](=O)[O-])c2)c1 [NU1017, 3-(3-Nitrobenzyloxy)benzamide] | –
15 | 39 | insol. | – | – | CCCCCCOc1cccc(C(N)=O)c1 [NU1043, 3-hexyloxybenzamide] | –
– | – | insol. | insol. | – | COC(=O)c1ccc(COc2cccc(C(N)=O)c2)cc1 [NU1041, 3-(4-carboxymethylbenzyloxy)benzamide] | insolubility at assay concentration ([1]; 10 μM): insol.
– | 54 | – | – | 81 | NC(=O)c1cccc(OCCCCCBr)c1 [NU1019, 3-(5-Bromopentyloxy)benzamide] | –
– | – | insol. | insol. | – | NC(=O)c1cccc(OCc2ccccc2[N+](=O)[O-])c1 [NU1042, 3-(2-Nitrobenzyloxy)benzamide] | insolubility at assay concentration ([1]; 10 μM): insol.
– | – | – | – | 76 | NC(=O)c1cccc(OCc2ccccc2)c1 [NU1005, 3-benzyloxybenzamide] | inhibition at 10 µM (PARP; [7]): 34%; inhibition at 30 µM (PARP; [8]): 60%
26 | – | insol. | insol. | – | NC(=O)c1cccc(OCc2ccc([N+](=O)[O-])cc2)c1 [NU1007, 3-(4-nitrobenzyloxy)benzamide] | –
26 | – | insol. | insol. | – | CCCCCCCOc1cccc(C(N)=O)c1 [NU1044, 3-heptyloxybenzamide] | –
55 | 78 | – | – | 89 | COc1cccc(C(N)=O)c1 [3-methoxybenzamide, reference compound] | –
